Experimental data published in patent US9980890B2, “Zinc amino acid halide mouthwashes” (Colgate-Palmolive Company, priority 2012, dated 2018).

What was measured:
[1] = pH of oral gel phase batches, original and diluted; assay type: physicochemical; settings: original gel phase batch with the named active
[2] = Clarity of oral gel phase batches: absorbance at 610 nm (Lambda 25 UV/VIS), original and diluted; assay type: physicochemical; settings: for Absorbance: 610 nm
Procedure: The clarity of samples with different actives is compared, and the precipitation characteristic of ZLC gel phase by dilution is evaluated. […] Zinc ion concentration in the following batches are all prepared at 0.5% (w/w) zinc level.
Lambda 25 UV/VIS Spectrometer (PerkinElmer) is used to obtain absorbance information for all samples in order to compare the clarity of gel phase between different actives. Absorbance is a logarithmic measure of the amount of light that is absorbed when passing through a substance. Since the particles in the gel absorb light, the more particles existing in solution, the more light absorbed by the gel. Thus, a small number of absorbance of a gel indicates a higher clarity. The absorbance is corrected by using deionized (DI) water as the blank solution under the light source wavelength of 610 nm.

[3] = Turbidity (percent transmission, TurbiScan) of mouthwash batches, original and diluted; assay type: physicochemical; settings: zinc 1.01 wt %
Procedure: Four 500 g mouthwash batches which contain NaF, ZLC, ZnCl2 and ZnO as active ingredient are formulated with the ingredients shown in Table 1. The objective of this study is to compare the clarity of samples with different actives. Turbidity is evaluated by the percent transmission of light through the solution as measured by a TurbiScan® dispersion stability analyzer. The higher the percent transmission, the more transparent the composition. […] The concentration of zinc ions in ZLC solution is 25300 ppm obtained by ICP (Inductively Coupled Plasma) analysis, which corresponds to approximately 17% weight of ZLC actives in the solution. Zinc ion concentration in all batches is controlled to same level, i.e., 1.01 wt %. Among the four batches, the one that has ZnO as active appears milk white, with 0% transmission, while the other three samples are as clear as the deionized water (Table 2).
All original mouthwash batches are diluted into 2 fold, 4 fold, 8 fold, 16 fold and 32 fold. Turbidity measurements are performed after all solutions are prepared and well shaken. The turbidity data of the samples are shown in Table 3, 4, 5 and 6, for the dilutions of mouthwash containing NaF, ZLC, ZnCl2 and ZnO respectively.

[4] = Deposition/occlusion assay on dentine slices, confocal imaging; parameters: species or system human
Procedure: The deposition/occlusion assay is conducted using human dentine slices and the neat solution of Example 5. The dentine slices were prepared by cutting human tooth into thin dentine sections of about 800 microns in thickness, choosing a test side, sanding said test side using a sandpaper of about 600 grit, polishing said test side using a Buehler polishing cloth and 5 micron Buehler aluminum oxide, acid-etching said dentine section in 1% (by weight) citric acid solution for about 20 seconds, sonicating said dentine section for 10 minutes, and storing said dentine section in phosphate buffered saline (PBS, pH 7.4).
For treatment, the neat solution is diluted 16-fold with water, yielding a treatment solution with initial zinc concentration of about 0.149% by weight. The dentine section is immersed in the treatment solution for 1 hour at 37° C. The treated dentine section is then removed from the treatment solution, and rinsed 4 times, each time with 1 mL of PBS. The dentine section is then dried using a paper-based tissue and examined under confocal microscope in both XYZ and XYZ modes. Subsequent treatments are conducted in the same manner.
Dentine sections, as prepared in Example 6, are repeatedly treated with ZLC dilutions with initial zinc concentration of 0.0747% by weight. […] The dentine section is examined under the confocal microscope after each treatment.

[5] = Dilution experiment of ZLC neat solution: visible flocculation/precipitation at 37° C.; assay type: physicochemical
Procedure: Various dilutions of ZLC are prepared to evaluate its efficiency in producing visible precipitates and/or flocculation, which can be delivered in situ onto an oral surface or into a dental opening, such as open tubules.
(§1) A neat solution of ZLC is prepared by 1), reacting 0.5 mole of ZnO powder with 1 mole of lysine HCl in 1 liter of water at room temperature for about 2 hours, and 2) collecting the supernatant through centrifugation followed by filtration using a 0.45 micron membrane. The neat solution has a zinc concentration of 2.39% by weight, and a pH of about 7.03.
(§2) Dilution experiment is conducted by mixing the neat solution with deionized water. The neat solution is diluted by 2×, 4×, 6×, 7×, 8×, 10×, 12×, 16×, 20×, 24×, 28×, and 32×, corresponding to initial zinc concentrations of 1.20%, 0.598%, 0.398%, 0.341%, 0.299%, 0.239%, 0.199%, 0.149%, 0.120%, 0.0996%, 0.0854%, 0.0747%, by weight, respectively. The diluted samples are kept at 37° C., and the rates at which flocculation/precipitation occurred are monitored.

[6] = pH of ZLC neat solution and final diluted samples; assay type: physicochemical; settings: neat solution, zinc 2.39% by weight
Procedure: as §1, §2
pH values of final diluted samples are suitable for oral care applications. […] These pH values were well within the range of 5.5 to 10, which defines the suitable range for oral care formulations.

[7] = gel phase batch, 2 fold dilution
[8] = gel phase batch, 4 fold dilution
[9] = gel phase batch, 8 fold dilution
[10] = gel phase batch, 16 fold dilution
[11] = gel phase batch, 32 fold dilution
[12] = original gel phase batch with the named active, DI water blank, 0.5% (w/w) zinc
[13] = original gel phase batch with the named active
[14] = initial zinc 0.0747% (32-fold dilution), 10 minutes at 37° C. each
[15] = neat solution diluted 16-fold, zinc about 0.149%, 1 hour at 37° C. each

Row | Compound | pH [1] | Absorbance [2, 7] | Absorbance [2, 8] | Absorbance [2, 9] | Absorbance [2, 10] | Absorbance [2, 11] | Absorbance [2, 12] | Appearance / dissolution of active in gel phase [2, 13] | also measured
1 | [F-].[Na+] [NaF, Sodium Fluoride] | 7.63 | 0.0106 | 0.0104 | 0.0107 | 0.0075 | 0.0137 | 0.0344 | – | –
2 | [Cl-].[Cl-].[Zn+2] [ZnCl2] | 5.25 | 0.7315 | 0.3700 | 0.1701 | 0.0570 | 0.0280 | 0.9204 | cloudy | –
3 | [O]=[Zn] [ZnO] | 8.30 | 2.4630 | 2.5340 | 2.1883 | 1.8638 | 1.0492 | 2.4626 | not dissolved | Appearance / clarity of mouthwash batch ([3]; original mouthwash batch with the named active): milk white; Turbidity (% Transmission) ([3]; original mouthwash batch, undiluted): 0%
4 | [Zn(C6H14N2O2)2Cl]^+Cl^− [ZLC] | 7.37 | – | – | 0.1860 | 0.1336 | – | 0.1765 | homogenous solution | Deposition by confocal imaging after 4 consecutive treatments [4, 14]: significant surface deposition; Deposition/occlusion by confocal imaging after 12 consecutive treatments [4, 14]: complete surface coverage; Visible precipitation during treatment ([4]; initial zinc 0.0747%, 10 minutes at 37° C.): no precipitation is observed by naked eyes; Deposition/occlusion by confocal imaging, first treatment ([4]; neat solution diluted 16-fold, zinc about 0.149%, 1 hour at 37° C.): noticeable deposition; Deposition/occlusion by confocal imaging, second treatment [4, 15]: complete surface coverage, including blocking of substantially all tubule openings; Deposition/occlusion by confocal imaging, third treatment [4, 15]: complete surface coverage and complete blocking of tubule openings; Thickness of surface deposits, second treatment [4, 15]: ≥ 10 microns; Thickness of surface deposits, third treatment [4, 15]: ≥ 25 microns; Flocculation observation two hours after mixing ([5]; additional sample with initial zinc concentration 0.299%): presence of flocculation; Flocculation/precipitation observation after a total of 19 hours ([5]; all samples except initial zinc concentration 1.20%): flocculation and/or precipitation can be observed; Time to some visible flocculation after mixing stock solution with water ([5]; dilutions with initial zinc concentrations 0.149% and 0.199%): ≤ 30 min; Flocculation observation one and a half hours after mixing ([5]; dilutions with initial zinc concentrations between 0.0747% and 0.239%): visible flocculation; Flocculation observation one hour from mixing ([5]; dilutions with initial zinc concentrations between 0.0854% and 0.239%): visible flocculation; Relative amount of precipitate after a total of 19 hours ([5]; initial zinc concentrations between 0.0747% and 0.239%): the most precipitates; pH [6]: about 7.03
